The values that follow come from patent US12679827B2, “Pyrimidine compounds and their pharmaceutical uses” (National Health Research Institutes, priority 2020, dated 2026).

Molecules are shown by their SMILES.

One test relates to SNU-398. Briefly: Proliferation inhibition of various cancer cells (PrestoBlue), SNU-398. As to conditions: Homo sapiens, Liver cancer, 72 hours. Format: cell-based. On the procedure:
(§1) The efficacies of compounds 41 and 86 of Formula (I) in inhibiting proliferation of eleven types of cancer cells were determined using PrestoBlue™ Cell Viability Reagent (ThermoFisher Scientific, USA). The eleven types of cancer cells are small cell lung cancer, non-small cell lung cancer, liver cancer, pancreatic cancer, breast cancer, colon cancer, prostate cancer, neuroblastoma, brain cancer, leukemia, and cholangiocarcinoma.
(§2) More specifically, […], i.e., NCI-H82 (ATCC® HTB-175), NCI-H446 (ATCC® HTB-171), NCI-H69 (ATCC® HTB-119), NCI-H146 (ATCC® HTB-173), NCI-H1792 (ATCC® CRL-5895), NCI-H1299 (ATCC® CRL-5803), SNU-398 (ATCC® CRL-2233), PSN-1 (ATCC® CRL-3211), MIA PaCa-2 (ATCC® CRL-1420), MDA-MB-231 (ATCC® HTB-26), LOVO (ATCC® CCL-229), COLO 205 (ATCC® CCL-222), PC-3 (ATCC® CRL-1435), SK-N-BE(2) (ATCC® CRL-2271), D341 Med (ATCC® HTB-187), K562 (ATCC® CCL-243), MOLM-13 (DSMZ-German Collection of Microorganisms and Cell Cultures GmbH, ACC No. 554), and SNU-478 (KCLB 00478), were seeded at a density of 4000-10000 cells per well in 96-well plates for 24 hours. The cancer cells were then treated with each compound at various concentrations (0-10 μM), followed by incubation for another 72 hours. IC50 values were computed based on duplicated 8-point titration.

Another test deals with K562. The test can be described thus: Proliferation inhibition of various cancer cells (PrestoBlue), K562. Conditions: Homo sapiens, Leukemia, 72 hours. Format: cell-based. On the procedure:
as §1, §2

For another test, the system named is PC-3. The test can be described thus: Proliferation inhibition of various cancer cells (PrestoBlue), PC-3. It counts as cell-based. As to conditions: Homo sapiens, Prostate cancer, 72 hours. On the procedure: as §1, §2
The test system of another test is MIA PaCa-2. The test can be described thus: Proliferation inhibition of various cancer cells (PrestoBlue), MIA PaCa-2. It counts as cell-based. As to conditions: Homo sapiens, Pancreatic cancer, 72 hours. On the procedure: as §1, §2
In the next test the test system is Colo205. Briefly: Proliferation inhibition of various cancer cells (PrestoBlue), Colo205. It counts as cell-based. Conditions: Homo sapiens, COLO 205; Colon cancer; 72 hours. On the procedure:
as §1, §2

In a further test the test system is NCI-H82. The test can be described thus: Proliferation inhibition of various cancer cells (PrestoBlue), NCI-H82. Format: cell-based. Conditions: Homo sapiens, Small cell lung cancer, 72 hours. On the procedure:
as §1, §2

The subject of a further test is MYCN. The test can be described thus: Western blot, MYCN protein level in SK-N-BE(2) cells. It counts as cell-based, human. Conditions: SK-N-BE(2) (neuroblastoma) cells; 50, 200, 500, 1000 nM; 24 hours; FIG. 1. On the procedure: (§3) Compounds 41 and 86, both covered by Formula (I), were tested to assess their efficacies in reducing the level of cMYC oncoprotein in a human small-cell-lung-cancer (“SCLC”) cell line NCI-H82 (ATCC® HTB-175, USA) and the level of MYCN oncoprotein in a human neuroblastoma cell line SK-N-BE(2) (ATCC® CRL-2271, USA) as follows.
(§4) NCI-H82 was maintained in RPMI1640 medium (ThermoFisher Scientific, USA) supplemented with 10% fetal bovine serum (FBS, HyClone, USA) and antibiotics. SK-N-BE(2) was maintained in Minimum Essential Medium (MEM, ThermoFisher Scientific, USA) supplemented with 10% FBS (HyClone, USA) and antibiotics. The cancer cells from each cell line were treated with each of compounds 41 and 86 at 4 different compound concentrations, i.e., 50 nM, 200 nM, 500 nM, and 1000 nM. After 24 hours, each cancer cell solution was washed with 1× phosphate buffered saline (PBS), lysed in 1× Laemmli protein sample buffer, and boiled at 100° C. for 10 minutes. Each lysate was separated by SDS-PAGE, transferred to polyvinylidene fluoride (PVDF, Millipore, USA) membrane, and blotted with antibodies. Primary antibodies used for Western blotting were cMYC (Cell Signaling, Cat No. 5605S), MYCN (Cell Signaling, 9405S), PARP-1 (Abcam, ab32378), and GAPDH (Genetex, GTX100118). […]
Background: A western blot detects proteins with antibodies after separation by electrophoresis.

The test system of another test is MDA-MB-231. Briefly: Proliferation inhibition of various cancer cells (PrestoBlue), MDA-MB-231. Format: cell-based. As to conditions: Homo sapiens, Breast cancer, 72 hours. On the procedure:
as §1, §2

The test system of another test is cMYC. Briefly: Western blot, cMYC protein level in NCI-H82 cells. It counts as cell-based, human. Conditions: NCI-H82 (SCLC) cells; 50, 200, 500, 1000 nM; 24 hours; FIG. 1. On the procedure: as §3, §4
For another test, the system named is NCI-H146. The test can be described thus: Proliferation inhibition of various cancer cells (PrestoBlue), NCI-H146. It counts as cell-based. Conditions: Homo sapiens, Small cell lung cancer, 72 hours. On the procedure: as §1, §2
In another test the test system is SK-N-BE(2). The test can be described thus: Proliferation inhibition of various cancer cells (PrestoBlue), SK-N-BE(2). Format: cell-based. As to conditions: Homo sapiens, SKNBE2; Neuroblastoma; 72 hours. On the procedure:
as §1, §2

The test system of test [1] is NCI-H446. The test can be described thus: Small-cell-lung cancer cell proliferation inhibition assay (PrestoBlue), NCI-H446. As to conditions: Homo sapiens, cMYC amplified SCLC cells, 72 hours. It counts as cell-based. On the procedure: Small cell lung cancer cells NCI-H82 (ATCC HTB-175, cMYC amplified), NCI-H446 (ATCC® HTB-171, cMYC amplified), and NCI-H69 (ATCC® HTB-119, MYCN amplified) were seeded at the density of 5000-10000 cells per well in 96-well plates. After 24 hours, the cancer cells were treated with each compound at various concentrations (0-10 μM) and then incubated for another 72 hours. IC50 values were computed based on duplicated 8-point titration.

Test [2] concerns NCI-H446. Briefly: Proliferation inhibition of various cancer cells (PrestoBlue), NCI-H446. Conditions: Homo sapiens, Small cell lung cancer, 72 hours. It counts as cell-based. On the procedure:
as §1, §2

The test system of a further test is NCI-H69. The test can be described thus: Proliferation inhibition of various cancer cells (PrestoBlue), NCI-H69. It counts as cell-based. Conditions: Homo sapiens, Small cell lung cancer, 72 hours. On the procedure:
as §1, §2

The test system of another test is PSN-1. Briefly: Proliferation inhibition of various cancer cells (PrestoBlue), PSN-1. Format: cell-based. As to conditions: Homo sapiens, PSN1; Pancreatic cancer; 72 hours. On the procedure:
as §1, §2

The next test deals with SNU-478. The test can be described thus: Proliferation inhibition of various cancer cells (PrestoBlue), SNU-478. Format: cell-based. Conditions: Cholangiocarcinoma; 72 hours. On the procedure: as §1, §2

Consider `CCN1CCN(c2cc(Nc3cc(C)[nH]n3)nc(N[C@H]3CCN(C(=O)c4ccc(Cl)cc4F)C3)n2)CC1` [Compound 41], for which the IC50 (commonly the concentration that inhibits the measured activity by half) in the test with SNU-398 is less than 200 nM; in the test on K562 it was less than 1000 nM; in the test with PC-3 it was less than 10000 nM; with MIA PaCa-2 it was less than 1000 nM; with Colo205, less than 1000 nM; in the test on NCI-H82 it was less than 200 nM. In addition, the IC50 with MDA-MB-231 was less than 300 nM; with NCI-H146, less than 2000 nM; with SK-N-BE(2), less than 200 nM; in the test on NCI-H446 [1], less than 1000 nM; in the test on NCI-H446 [2], less than 200 nM; in the test on NCI-H69, less than 200 nM. The IC50 with PSN-1 and with SNU-478 was less than 2000 nM each time. Moreover, the “protein level of MYCN” value in the test with MYCN is on record as “greatly reduced”. Further, the “protein level of cMYC” value with cMYC is listed as “greatly reduced”.

On to `CCN1CCN(c2cc(Nc3cc(C)[nH]n3)nc(NC3CCN(C(=O)c4cccc(Cl)c4F)CC3)n2)CC1` [Compound 86], for which the IC50 with SNU-398 was less than 200 nM; with K562, less than 1000 nM; with PC-3, less than 10000 nM; in the test on MIA PaCa-2, less than 1000 nM; in the test with Colo205, less than 1000 nM; in the test with NCI-H82, less than 300 nM. Besides, the IC50 in the test on MDA-MB-231 is less than 300 nM; in the test with NCI-H146 it was less than 10000 nM; in the test on SK-N-BE(2) it was less than 200 nM; in the test with NCI-H446 [1], less than 1000 nM; with NCI-H446 [2], less than 200 nM; in the test on NCI-H69, less than 200 nM. The IC50 in the test on PSN-1 and in the test with SNU-478 was less than 2000 nM in each case. For the same compound, in the test with MYCN, the “protein level of MYCN” value is “greatly reduced”. In addition, the “protein level of cMYC” value with cMYC is listed as “greatly reduced”.
